Reference: patent US20160138114A1, “Biomarkers of Response to Inhibition of Poly-ADP Ribose Polymerase (PARP) in Cancer” (THE REGENTS OF THE UNIVERSITY OF CALIFORNIA, priority 2013, published 2016)

Key:
BT-20 = assay: BMN673 sensitivity (cell growth) in cancer cell line; assay type: cell-based, human; details: BT-20, Breast
Description: (§1) This example illustrates that CHD1L amplification correlated with overexpression of CHD1L protein. […] CHD1L protein expression in the NSCLC and breast cancer cell lines was assayed by Western blot with antibodies against CHD1L. […] HCC1937 was used as a negative control for CHD1L protein expression, as the cell line carries a loss of heterozygosity (LOH) of CHD1L. Each of these cell lines was also assayed for sensitivity or resistance to inhibition of PARP by BMN673. Briefly, each cell line was cultured and exposed to a range of concentrations of BMN673 to determine an IC50 value of inhibitory effect on PARP (as evidenced by cell growth) for each cell line (see Table 2).

H1651 = assay: as above; assay type: cell-based, human; details: H1651, Lung
Description: as §1

H1568 = assay: as above; assay type: cell-based, human; details: H1568, Lung
Description: as §1

184B5 = assay: as above; assay type: cell-based, human; details: 184B5, Breast
Description: as §1

CaLu1 = assay: as above; assay type: cell-based, human; details: CaLu1, Lung
Description: as §1

EMF192A = assay: as above; assay type: cell-based, human; details: Breast
Description: as §1

BT-474 = assay: as above; assay type: cell-based, human; details: BT-474, Breast
Description: as §1

H1838 = assay: as above; assay type: cell-based, human; details: H1838, Lung
Description: as §1

MCF7 = assay: as above; assay type: cell-based, human; details: MCF7, Breast
Description: as §1

HCC1937 = assay: as above; assay type: cell-based, human; details: HCC1937, Breast
Description: as §1

MDA-MB-436 = assay: as above; assay type: cell-based, human; details: MDA-MB-436, Breast
Description: as §1

HCC1187 = assay: as above; assay type: cell-based, human; details: HCC1187, Breast
Description: as §1

[1] = system: 184B5 CHD1L knock-in clone 7; assay: BMN673 treatment of CHD1L knock-in clone; assay type: cell-based; details: Homo sapiens; 184B5 knock-in clone 7, high CHD1L protein expression
Description: (§2) This example illustrates the creation of cell lines overexpressing CHD1L protein by vector knock-in. Briefly, breast cancer cell line 184B5 cells were transduced with lentivirus containing CHD1L cDNA. After transduction, clones transfected with CHD1L were selected with 500 μg/mL G418 for 1 week. Expression of CHD1L protein in the 24 knock-in clones and the parental cell line 184B5 was detected by Western blot. […] This example illustrates that the knock-in of CHD1L protein sensitized breast cancer cells to BMN673 treatment. Briefly, 184B5 knock-in clones 7 and 14 (i.e., cells with high CHD1L protein expression) were treated with BMN673 and compared with the 184B5 parental cell line (i.e., cells with low CHD1L protein expression) treated with BMN673, with respect to percent death from baseline (FIG. 5, top panel) and percent growth inhibition (FIG. 5, bottom panel).

[2] = system: 184B5 CHD1L knock-in clone 14; assay: BMN673 treatment of CHD1L knock-in clone; assay type: cell-based; details: Homo sapiens; 184B5 knock-in clone 14, high CHD1L protein expression
Description: as §2

184B5 parental cell line = assay: BMN673 treatment of CHD1L knock-in study, parental line; assay type: cell-based; details: Homo sapiens, low CHD1L protein expression
Description: as §2

## Cn1ncnc1[C@H]1c2n[nH]c(=O)c3cc(F)cc(c23)N[C@@H]1c1ccc(F)cc1 [BMN673]
BT-20
  Response: resistant and Res
BT-20; Homo sapiens, 1q21 NC
  IC50: 352 nM
H1651
  Response: sensitive and Sens
H1651; Homo sapiens, NCI-H1651, 1q21 AMP
  IC50: 6.31 nM
H1568
  Response: Int
H1568; Homo sapiens, NCI-H1568, 1q21 AMP
  IC50: 49.8 nM
184B5
  Response: resistant and Res
184B5; Homo sapiens, 1q21 NC
  IC50: 5480 nM
CaLu1
  Response: resistant and Res
CaLu1; Homo sapiens, Calu-1, 1q21 NC
  IC50: 2560 nM
EMF192A
  Response: resistant and Res
EMF192A; Homo sapiens, 1q21 NC
  IC50: 897 nM
BT-474
  Response: resistant and Res
BT-474; Homo sapiens, 1q21 NC
  IC50: 595 nM
H1838
  Response: sensitive and Sens
H1838; Homo sapiens, NCI-H1838, 1q21 AMP
  IC50: 1.2 nM
MCF7; Homo sapiens, 1q21 AMP
  IC50: 92.8 nM
MCF7
  Response: sensitive and Int
HCC1937
  Response: Int
HCC1937; Homo sapiens, 1q21 LOH
  IC50: 84.2 nM
MDA-MB-436; Homo sapiens, 1q21 AMP
  IC50: 0.19 nM
MDA-MB-436
  Response: sensitive and Sens
HCC1187
  Response: sensitive and Sens
HCC1187; Homo sapiens, 1q21 AMP
  IC50: 1.09 nM
[1]
  IC50: 62 nM
[2]
  IC50: 30 nM
184B5 parental cell line
  IC50: ~1000 nM
